The values that follow come from patent US20240300886A1, “ARYLCYCLOHEXYLAMINE DERIVATIVES AND THEIR USE IN THE TREATMENT OF PSYCHIATRIC DISORDERS” (GILGAMESH PHARMACEUTICALS, INC., priority 2021, published 2024).

Where two headings read alike, the source gives them in different places.

A short description of data set [1]: Stability in liver microsomes (Example 21), SD rat. The data set is classed as in vitro ADME. The following applies: male, pH 7.4, 0.5 mg/mL protein. As for the experimental part:
(§1) General Procedure. Briefly, test compounds (final concentration 1 μM) were incubated in duplicate with liver microsomes from male animals of the indicated species (final protein concentration 0.5 mg/mL) in 50 mM sodium phosphate buffer (pH 7.4) with or without NADPH (1 mM). Total incubation volume was 500 μL. At 0, 5, 15, 30, and 60 min, aliquots of 50 μL were withdrawn, quenched with acetonitrile (150 μL), and analyzed for parent compound remaining using a fit-for-purpose LC-MS/MS method. Intrinsic clearance and half-life were calculated. Clearance values below zero were rounded to zero.

Data set [2] can be described thus: Stability in liver microsomes (Example 21), cynomolgus monkey. It is filed as in vitro ADME. As to conditions: male, pH 7.4, 0.5 mg/mL protein. Here is the method:
as §1

A short description of data set [3]: Stability in liver microsomes (Example 21), Gottingen minipig. It is filed as in vitro ADME. The following applies: male, pH 7.4, 0.5 mg/mL protein. Here is the method: as §1
A short description of data set [4]: Stability in liver microsomes (Example 21), beagle dog. It is filed as in vitro ADME. The following applies: male, pH 7.4, 0.5 mg/mL protein. Here is the method:
as §1

Data set [5] can be described thus: Oral bioavailability in minipigs (plasma PK). The data set is classed as in vivo, Bama minipigs. As to conditions: for AUC(0-inf): male, Bama. As for the experimental part:
Animals. Male Bama minipigs were used in these studies. Animals were randomly assigned to treatment groups and were fasted overnight before dosing.
(§2) Drugs. Compound 2R was dissolved in a vehicle consisting of normal saline. It was then administered intravenously (iv) or orally (po) at a dose of 1 mg/kg (calculated based on freebase) and at a volume of 2 mL/kg body weight (n=3 per dosing route).
(§3) Sample Collection and Bioanalysis. Blood samples (approximately 500 μL) were collected under manual restraint from the cephalic vein at 0.08, 0.25, 0.5, 1, 2, 4, 8, and 24 h ([…]) into K2EDTA tubes and placed on wet ice. Immediately after blood collection, plasma was harvested by centrifugation at 3,000 g for 5 min at 4° C. within 15 minutes of collection and subsequently stored at −70±10° C. until bioanalysis. For bioanalysis, for diluted plasma samples, an aliquot of 2 μL sample was diluted with 18 μL blank matrix and the dilution factor was 10. For non-diluted samples, an aliquot of 20 μL sample was added with 300 μL internal standard (diclofenac, 60 ng/mL) in acetonitrile. The mixture was vortexed for 10 minutes and centrifuged at 5,800 rpm for 10 minutes. 90 μL of supernatant was transferred to a 96 well plate and analyzed with a fit-for-purpose LC-MS/MS method, with authentic samples of each analyte used for calibration and identification.
Data Analysis. Pharmacokinetic parameters were estimated using the non-compartmental analysis tool of Phoenix® WinNonlin software (Ver 8.2).

The nature of data set [6]: Oral bioavailability in monkeys (plasma PK). It is filed as in vivo, Cynomolgus monkeys. As to conditions: for AUC(0-inf): male, cynomolgus monkey. As for the experimental part: Animals. Male Cynomolgus monkeys were used in these studies. Animals were randomly assigned to treatment groups and were fasted overnight before dosing.
as §2, §3
Data Analysis. Pharmacokinetic parameters were estimated using the non-compartmental analysis tool of Phoenix® a WinNonlin software (Ver 8.2).

Data set [7] in a line: Oral bioavailability in mice, Method A (plasma and brain PK). The data set is classed as in vivo, CD-1 mice. As to conditions: for half-life / Cmax / AUC(0-inf): male; for F: 10 mg/kg. Here is the method:
Animals. Male CD-1 mice were used in these studies. Animals were randomly assigned to treatment groups and were fasted for 4 h before dosing.
Drugs. Test compounds were dissolved in normal saline and administered intravenously (iv) or orally (po) at a dose of 10 mg/kg (calculated based on freebase) and at a volume of 5 mL/kg body weight. Compounds were tested as the racemates or pure enantiomers, as indicated.
Sample Collection and Bioanalysis. Blood samples were collected under 2,2,2-tribromoethanol anesthesia (150 mg/kg, ip) from the orbital sinus at 0.083, 0.25, 0.5, 1, 2, 4, 8 and 24 h (4 animals per time point) into microcontainers containing K2EDTA. Immediately after collection of blood, mice were euthanized by cervical dislocation and brain samples were collected at the same time points. All samples were immediately processed, flash-frozen, and stored at −70° C. until subsequent analysis. Plasma samples were separated by centrifugation of is whole blood and aliquots (50 μL) were mixed with 200 μL of internal standard solution (400 ng/mL in 1:1 v/v CH3CN:MeOH). After mixing by pipetting and centrifuging for 4 min at 6,000 rpm, 0.5 μL of each supernatant was analyzed for drug using a fit-for-purpose liquid chromatography-tandem mass spectrometry (LC-MS/MS) method, with authentic samples of each analyte used for calibration and identification. Brain samples (weight 100 mg±1 mg) were dispersed in 500 μL of internal standard solution (400 ng/mL in 4:1 v/v MeOH:water) using zirconium oxide beads (115 mg±5 mg) in The Bullet Blender® homogenizer for 30 s at speed 8. After homogenization, the samples were centrifuged for 4 min at 14,000 rpm and 0.5 μL of each supernatant was analyzed for drug using a fit-for-purpose LC-MS/MS method, with authentic samples of each analyte used for calibration and identification.
Data Analysis. The drug concentrations of samples below the lower limit of quantitation (LLOQ) were designated as zero. Pharmacokinetic data analysis was performed using noncompartmental, bolus injection or extravascular input analysis models in WinNonlin 5.2 (PharSight). Data points below LLOQ were presented as missing to improve validity of tin calculations.

On to `CN[C@]1(c2ccc(F)cc2)CCCCC1=O` [Compound 2S, (S)-2-(4-fluorophenyl)-2-(methylamino)cyclohexan-1-one], for which the intrinsic clearance (microsomal CLint) at 1 μM in data set [1] worked out at 14.1 µL/min/mg; in data set [2], 15.3 µL/min/mg; in data set [3], 20.3 µL/min/mg; in data set [4], 7.3 µL/min/mg.

Consider `CN[C@@]1(c2ccc(F)cc2)CCCCC1=O` [Compound 2R, (R)-2-(4-fluorophenyl)-2(methylamino)cyclohexan-1-one], for which the AUC(0-inf) was 566 ng·h/mL in data set [5] (minipig plasma, 1 mg/kg iv, read-out: AUC0-inf (iv) (converted)); 242 ng·h/mL in data set [5] (minipig plasma, 1 mg/kg po, read-out: AUC0-inf (po) (converted)); 964 ng·h/mL in data set [6] (monkey plasma, 1 mg/kg iv, read-out: AUC0-inf (iv) (converted)); 259 ng·h/mL in data set [6] (monkey plasma, 1 mg/kg po, read-out: AUC0-inf (po) (converted)). In addition, the F in data set [5] (minipig plasma, 1 mg/kg) was 42.7%; in data set [6] (monkey plasma, 1 mg/kg), 27%. Also, the “oral bioavailability (in words)” value in data set [5] (minipigs, 1 mg/kg) is “good”; in data set [6] (monkeys, 1 mg/kg) it was “moderate”. Further, the microsomal CLint at 1 μM in data set [1] was 16.2 µL/min/mg; in data set [2] it was 9.5 µL/min/mg; in data set [3], 16.4 µL/min/mg; in data set [4] it was 10.5 µL/min/mg.

`CNC1(c2ccccc2Cl)CCCCC1=O` (racemic) [racemic ketamine, ketamine]: the half-life in data set [7] (CD-1, mouse brain, 10 mg/kg iv, read-out: t1/2 (iv)) was 8.66 min; in data set [7] (CD-1, mouse brain, 10 mg/kg po, read-out: t1/2 (po)), 12.2 min; in data set [7] (CD-1, mouse plasma, 10 mg/kg iv, read-out: t1/2 (iv)), 8.46 min; in data set [7] (CD-1, mouse plasma, 10 mg/kg po, read-out: t1/2 (po)), 11.5 min. Besides, the Cmax in data set [7] (CD-1, mouse brain, 10 mg/kg po) came out at 521 ng/g; in data set [7] (CD-1, mouse plasma, 10 mg/kg po), 253 ng/mL. Also, the AUC(0-inf) was 633 ng·h/mL in data set [7] (CD-1, mouse plasma, 10 mg/kg iv, read-out: AUC0-inf (iv) (converted)) and 96.8 ng·h/mL in data set [7] (CD-1, mouse plasma, 10 mg/kg po, read-out: AUC0-inf (po) (converted)). Moreover, in data set [7] (mouse brain, 10 mg/kg iv), the “AUC0-inf (iv)” value was 97,000 ng*min/g. In addition, the “AUC0-inf (po)” value in data set [7] (mouse brain, 10 mg/kg po) was 6,030 ng*min/g. The F in data set [7] (mouse brain, calculated based on brain exposure) is listed as 6.2%; in data set [7] (mouse plasma), 15%.
